Measurements as given in PubChem BioAssay AID2060616 (Molecular Pharmacology Branch, DTP, NCI, 2025).
Each block holds one molecule with its values, some of them ahead of it.

Test system: 377384-186-R-J1-PDC complex spheroid viability
Assay: Anticancer human tumor 377384-186-R-J1-PDC patient-derived pancreatic carcinoma cell line growth inhibition [CLK]
Settings: for IC50: curve of first compound; for viability, T/C: stronger effect = lower value
Summary of the method: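 Patient-derived tumor cells grown as complex spheroids with HUVEC endothelial cells and mesenchymal stem cells, treated with drug combinations. Concentrations descend in half-log steps from near clinical Cmax, or from 10 microM if Cmax unknown.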

[1] = second compound 0.0316 µM, first compound 0.0316 µM
[2] = second compound 0.0316 µM, first compound 0.1 µM
[3] = second compound 0.0316 µM, first compound 0.316 µM
[4] = second compound 0.0316 µM, first compound 1 µM
[5] = second compound 0.0316 µM, first compound 3.16 µM
[6] = second compound 0.0316 µM, first compound 10 µM
[7] = second compound 0.1 µM, first compound 0.0316 µM
[8] = second compound 0.1 µM, first compound 0.1 µM
[9] = second compound 0.1 µM, first compound 0.316 µM
[10] = second compound 0.1 µM, first compound 1 µM
[11] = second compound 0.1 µM, first compound 3.16 µM
[12] = second compound 0.1 µM, first compound 10 µM
[13] = second compound 0.316 µM, first compound 0.0316 µM
[14] = second compound 0.316 µM, first compound 0.1 µM
[15] = second compound 0.316 µM, first compound 0.316 µM
[16] = second compound 0.316 µM, first compound 1 µM
[17] = second compound 0.316 µM, first compound 3.16 µM
[18] = second compound 0.316 µM, first compound 10 µM
[19] = second compound 1 µM, first compound 0.0316 µM
[20] = second compound 1 µM, first compound 0.1 µM
[21] = second compound 1 µM, first compound 0.316 µM
[22] = second compound 1 µM, first compound 1 µM
[23] = second compound 1 µM, first compound 3.16 µM
[24] = second compound 1 µM, first compound 10 µM
[25] = second compound 3.16 µM, first compound 0.0316 µM
[26] = second compound 3.16 µM, first compound 0.1 µM
[27] = second compound 3.16 µM, first compound 0.316 µM
[28] = second compound 3.16 µM, first compound 1 µM
[29] = second compound 3.16 µM, first compound 3.16 µM
[30] = second compound 3.16 µM, first compound 10 µM
[31] = second compound 10 µM, first compound 0.0316 µM
[32] = second compound 10 µM, first compound 0.1 µM
[33] = second compound 10 µM, first compound 0.316 µM
[34] = second compound 10 µM, first compound 1 µM
[35] = second compound 10 µM, first compound 3.16 µM
[36] = second compound 10 µM, first compound 10 µM
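Also: spheroids exposed to agents for 7 days before reading.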
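For viability, T/C in this document: luminescence signal used as a stand-in for viable cells.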

- IC50 (second compound 0.0316 µM): < 0.0316 µM
- IC50 (second compound 0.1 µM): < 0.0316 µM
- IC50 (second compound 0.316 µM): < 0.0316 µM
- IC50 (second compound 1 µM): < 0.0316 µM
- IC50 (second compound 3.16 µM): < 0.0316 µM
- IC50 (second compound 10 µM): < 0.0316 µM
Compound: CC(=O)O[C@H]1C(=O)[C@@]2(C)[C@H]([C@H](OC(=O)c3ccccc3)[C@]3(O)C[C@H](OC(=O)[C@H](O)[C@@H](NC(=O)c4ccccc4)c4ccccc4)C(C)=C1C3(C)C)[C@]1(OC(C)=O)CO[C@@H]1C[C@@H]2O + CNC(=O)c1ccc(Nc2nc(OC3CCCC3)c3c(-c4ccc5nc(C)oc5c4)c[nH]c3n2)c(OC)c1
- viability, T/C [1]: 11.1%
- viability, T/C [2]: 9.78%
- viability, T/C [3]: 11.1%
- viability, T/C [4]: 10.2%
- viability, T/C [5]: 12.7%
- viability, T/C [6]: 20.1%
- viability, T/C [7]: 14.4%
- viability, T/C [8]: 16.9%
- viability, T/C [9]: 20.5%
- viability, T/C [10]: 21.8%
- viability, T/C [11]: 28.9%
- viability, T/C [12]: 35.2%
- viability, T/C [13]: 20%
- viability, T/C [14]: 21.2%
- viability, T/C [15]: 29%
- viability, T/C [16]: 36.6%
- viability, T/C [17]: 42.3%
- viability, T/C [18]: 47.3%
- viability, T/C [19]: 21.7%
- viability, T/C [20]: 22.3%
- viability, T/C [21]: 29.6%
- viability, T/C [22]: 37.9%
- viability, T/C [23]: 40.5%
- viability, T/C [24]: 49.1%
- viability, T/C [25]: 18%
- viability, T/C [26]: 21.7%
- viability, T/C [27]: 27.5%
- viability, T/C [28]: 34.4%
- viability, T/C [29]: 38.6%
- viability, T/C [30]: 45.5%
- viability, T/C [31]: 17.7%
- viability, T/C [32]: 22.3%
- viability, T/C [33]: 29.7%
- viability, T/C [34]: 37.2%
- viability, T/C [35]: 38.7%
- viability, T/C [36]: 42.8%

- IC50 (second compound 0.0316 µM): 1.64 µM
- IC50 (second compound 0.1 µM): < 0.0316 µM
- IC50 (second compound 0.316 µM): < 0.0316 µM
- IC50 (second compound 1 µM): < 0.0316 µM
- IC50 (second compound 3.16 µM): < 0.0316 µM
- IC50 (second compound 10 µM): < 0.0316 µM
Compound: COc1ccc([C@@H](O)c2cc(-c3ncnc4cc(N5CCOCC5)ccc34)c(F)cc2Cl)nn1 + CNC(=O)c1ccc(Nc2nc(OC3CCCC3)c3c(-c4ccc5nc(C)oc5c4)c[nH]c3n2)c(OC)c1
- viability, T/C [1]: 93.6%
- viability, T/C [2]: 99.5%
- viability, T/C [3]: 92%
- viability, T/C [4]: 54.9%
- viability, T/C [5]: 49.6%
- viability, T/C [6]: 29.4%
- viability, T/C [7]: 36.8%
- viability, T/C [8]: 33.5%
- viability, T/C [9]: 40.5%
- viability, T/C [10]: 35%
- viability, T/C [11]: 26.5%
- viability, T/C [12]: 19.5%
- viability, T/C [13]: 16.1%
- viability, T/C [14]: 14.4%
- viability, T/C [15]: 17.4%
- viability, T/C [16]: 16.6%
- viability, T/C [17]: 16.1%
- viability, T/C [18]: 13.6%
- viability, T/C [19]: 15.9%
- viability, T/C [20]: 18.2%
- viability, T/C [21]: 18.3%
- viability, T/C [22]: 15.9%
- viability, T/C [23]: 15.3%
- viability, T/C [24]: 15.5%
- viability, T/C [25]: 14.7%
- viability, T/C [26]: 17.8%
- viability, T/C [27]: 18.1%
- viability, T/C [28]: 16.2%
- viability, T/C [29]: 16.6%
- viability, T/C [30]: 15.5%
- viability, T/C [31]: 15.7%
- viability, T/C [32]: 13.2%
- viability, T/C [33]: 17.6%
- viability, T/C [34]: 15.7%
- viability, T/C [35]: 17.3%
- viability, T/C [36]: 15.4%

- IC50 (second compound 0.0316 µM): < 0.0316 µM
- IC50 (second compound 0.1 µM): < 0.0316 µM
- IC50 (second compound 0.316 µM): < 0.0316 µM
- IC50 (second compound 1 µM): < 0.0316 µM
- IC50 (second compound 3.16 µM): < 0.0316 µM
- IC50 (second compound 10 µM): < 0.0316 µM
Compound: COc1cccc2c1C(=O)c1c(O)c3c(c(O)c1C2=O)CC(O)(C(=O)CO)CC3OC1CC(N)C(O)C(C)O1 (stereo unspecified) + CNC(=O)c1ccc(Nc2nc(OC3CCCC3)c3c(-c4ccc5nc(C)oc5c4)c[nH]c3n2)c(OC)c1
- viability, T/C [1]: 10.2%
- viability, T/C [2]: 4.37%
- viability, T/C [3]: 1.55%
- viability, T/C [4]: 0.38%
- viability, T/C [5]: 3.07%
- viability, T/C [6]: 5.83%
- viability, T/C [7]: 9.1%
- viability, T/C [8]: 3.91%
- viability, T/C [9]: 1.38%
- viability, T/C [10]: 0.45%
- viability, T/C [11]: 3.75%
- viability, T/C [12]: 7.17%
- viability, T/C [13]: 9.14%
- viability, T/C [14]: 3.32%
- viability, T/C [15]: 1.45%
- viability, T/C [16]: 0.82%
- viability, T/C [17]: 4.73%
- viability, T/C [18]: 9.99%
- viability, T/C [19]: 7.32%
- viability, T/C [20]: 2.1%
- viability, T/C [21]: 0.65%
- viability, T/C [22]: 0.52%
- viability, T/C [23]: 3.63%
- viability, T/C [24]: 11.6%
- viability, T/C [25]: 9.23%
- viability, T/C [26]: 1.54%
- viability, T/C [27]: 0.4%
- viability, T/C [28]: 0.63%
- viability, T/C [29]: 5.3%
- viability, T/C [30]: 7.54%
- viability, T/C [31]: 7.12%
- viability, T/C [32]: 2.27%
- viability, T/C [33]: 0.51%
- viability, T/C [34]: 1.07%
- viability, T/C [35]: 5.51%
- viability, T/C [36]: 9.57%
